Assay results reported in publication PMC10882719 (Frontiers in Neuroscience, 2024).
Where two headings read alike, the source gives them in different places.

Experiments:
Type in all cases: cell-based
168 GPCRs [1] = target: T1, 168 GPCRs (Homo sapiens, UniProt P21728)
T1 construct: host or cells: PathHunter cell lines

168 GPCRs [2] = target: T2, 168 GPCRs (Homo sapiens, UniProt Q969F8); details: KISS1R
T2 construct: host or cells: PathHunter cell lines

168 GPCRs [3] = target: T3, 168 GPCRs (Homo sapiens, UniProt Q9NSD7); details: RXFP3
T3 construct: host or cells: PathHunter cell lines
T3 sequence (Q9NSD7 1-469): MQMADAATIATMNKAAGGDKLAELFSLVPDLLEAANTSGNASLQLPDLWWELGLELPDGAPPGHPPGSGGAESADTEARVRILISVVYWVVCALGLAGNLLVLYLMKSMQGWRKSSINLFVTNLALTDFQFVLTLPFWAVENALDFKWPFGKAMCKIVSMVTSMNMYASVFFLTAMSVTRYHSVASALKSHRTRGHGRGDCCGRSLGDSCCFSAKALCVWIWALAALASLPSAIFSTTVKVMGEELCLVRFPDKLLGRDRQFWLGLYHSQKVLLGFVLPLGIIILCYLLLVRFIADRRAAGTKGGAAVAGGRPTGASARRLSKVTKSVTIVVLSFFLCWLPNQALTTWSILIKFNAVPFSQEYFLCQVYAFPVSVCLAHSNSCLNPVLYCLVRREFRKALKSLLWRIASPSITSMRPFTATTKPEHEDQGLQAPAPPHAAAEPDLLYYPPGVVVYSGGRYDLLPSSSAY

168 GPCRs [4] = target: T4, 168 GPCRs (Homo sapiens, UniProt P46092)
T4 construct: host or cells: PathHunter cell lines
T4 sequence (P46092 1-362): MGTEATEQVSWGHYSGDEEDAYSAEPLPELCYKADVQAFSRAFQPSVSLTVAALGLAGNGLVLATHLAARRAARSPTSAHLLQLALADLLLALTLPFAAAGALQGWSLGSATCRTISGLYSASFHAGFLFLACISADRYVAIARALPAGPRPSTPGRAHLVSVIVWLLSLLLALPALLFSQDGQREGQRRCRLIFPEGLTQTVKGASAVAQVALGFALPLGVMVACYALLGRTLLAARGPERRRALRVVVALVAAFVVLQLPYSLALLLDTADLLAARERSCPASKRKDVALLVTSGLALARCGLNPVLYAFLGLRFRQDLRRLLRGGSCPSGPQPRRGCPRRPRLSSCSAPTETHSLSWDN

168 GPCRs [5] = target: T5, 168 GPCRs (Homo sapiens, UniProt P41146); details: OPRL1
T5 construct: host or cells: PathHunter cell lines
T5 sequence (P41146 whole entry): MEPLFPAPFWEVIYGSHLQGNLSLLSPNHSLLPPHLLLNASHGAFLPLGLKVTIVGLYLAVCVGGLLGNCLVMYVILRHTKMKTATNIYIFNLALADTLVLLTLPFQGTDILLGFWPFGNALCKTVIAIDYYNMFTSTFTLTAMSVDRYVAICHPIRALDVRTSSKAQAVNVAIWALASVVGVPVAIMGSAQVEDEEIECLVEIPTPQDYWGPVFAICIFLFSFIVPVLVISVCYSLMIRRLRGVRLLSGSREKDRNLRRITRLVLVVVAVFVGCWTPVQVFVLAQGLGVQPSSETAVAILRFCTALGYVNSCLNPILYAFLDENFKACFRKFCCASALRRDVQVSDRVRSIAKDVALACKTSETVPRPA

168 GPCRs [6] = target: T6, 168 GPCRs (Homo sapiens, UniProt O95136)
T6 construct: host or cells: PathHunter cell lines
T6 sequence (O95136 whole entry): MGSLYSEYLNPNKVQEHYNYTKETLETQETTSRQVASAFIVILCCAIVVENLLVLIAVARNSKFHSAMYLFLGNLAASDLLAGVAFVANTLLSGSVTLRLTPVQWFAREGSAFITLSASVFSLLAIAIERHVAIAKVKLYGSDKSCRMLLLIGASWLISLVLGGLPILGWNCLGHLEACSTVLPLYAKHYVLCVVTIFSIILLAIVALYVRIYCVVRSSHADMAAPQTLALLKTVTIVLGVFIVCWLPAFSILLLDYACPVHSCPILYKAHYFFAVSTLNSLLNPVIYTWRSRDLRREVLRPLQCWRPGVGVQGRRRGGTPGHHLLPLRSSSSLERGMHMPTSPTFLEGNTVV

168 GPCRs [7] = target: T7, 168 GPCRs (Homo sapiens, UniProt P21731); details: TBXA2R
T7 construct: host or cells: PathHunter cell lines
T7 sequence (P21731 1-343): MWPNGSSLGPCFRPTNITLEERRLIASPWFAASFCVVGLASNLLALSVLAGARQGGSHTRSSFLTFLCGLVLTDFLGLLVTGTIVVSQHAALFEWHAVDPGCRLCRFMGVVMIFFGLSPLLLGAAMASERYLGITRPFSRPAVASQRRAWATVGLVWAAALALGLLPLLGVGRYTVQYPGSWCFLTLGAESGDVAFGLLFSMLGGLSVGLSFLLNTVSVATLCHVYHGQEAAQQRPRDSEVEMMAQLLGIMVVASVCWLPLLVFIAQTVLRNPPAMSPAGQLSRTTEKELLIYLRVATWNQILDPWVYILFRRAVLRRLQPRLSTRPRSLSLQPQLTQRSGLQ

168 GPCRs [8] = target: T8, 168 GPCRs (Homo sapiens, UniProt Q15077); details: P2RY6
T8 construct: host or cells: PathHunter cell lines
T8 sequence (Q15077 whole entry): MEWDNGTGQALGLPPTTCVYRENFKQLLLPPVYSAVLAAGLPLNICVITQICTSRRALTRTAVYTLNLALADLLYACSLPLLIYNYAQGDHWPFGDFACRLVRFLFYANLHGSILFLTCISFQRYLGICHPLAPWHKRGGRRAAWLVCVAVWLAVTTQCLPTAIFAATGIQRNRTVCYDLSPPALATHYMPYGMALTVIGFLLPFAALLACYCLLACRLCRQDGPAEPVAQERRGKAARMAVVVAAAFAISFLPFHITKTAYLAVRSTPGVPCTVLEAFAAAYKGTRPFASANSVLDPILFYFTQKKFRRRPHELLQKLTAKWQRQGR

168 GPCRs [9] = target: T9, 168 GPCRs (Homo sapiens, UniProt P21453)
T9 construct: host or cells: PathHunter cell lines
T9 sequence (P21453 whole entry): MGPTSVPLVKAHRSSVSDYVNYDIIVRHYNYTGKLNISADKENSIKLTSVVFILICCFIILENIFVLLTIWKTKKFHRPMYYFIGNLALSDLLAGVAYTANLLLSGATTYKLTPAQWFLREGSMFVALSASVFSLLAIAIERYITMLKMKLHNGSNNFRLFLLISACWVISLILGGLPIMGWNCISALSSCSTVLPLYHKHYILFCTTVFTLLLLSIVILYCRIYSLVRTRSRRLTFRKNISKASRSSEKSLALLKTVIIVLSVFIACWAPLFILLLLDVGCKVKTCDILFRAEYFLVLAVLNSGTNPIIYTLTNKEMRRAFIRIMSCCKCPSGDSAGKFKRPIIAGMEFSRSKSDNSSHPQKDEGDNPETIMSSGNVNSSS

168 GPCRs [10] = target: T10, 168 GPCRs (Homo sapiens, UniProt P41597)
T10 construct: host or cells: PathHunter cell lines
T10 sequence (P41597 whole entry): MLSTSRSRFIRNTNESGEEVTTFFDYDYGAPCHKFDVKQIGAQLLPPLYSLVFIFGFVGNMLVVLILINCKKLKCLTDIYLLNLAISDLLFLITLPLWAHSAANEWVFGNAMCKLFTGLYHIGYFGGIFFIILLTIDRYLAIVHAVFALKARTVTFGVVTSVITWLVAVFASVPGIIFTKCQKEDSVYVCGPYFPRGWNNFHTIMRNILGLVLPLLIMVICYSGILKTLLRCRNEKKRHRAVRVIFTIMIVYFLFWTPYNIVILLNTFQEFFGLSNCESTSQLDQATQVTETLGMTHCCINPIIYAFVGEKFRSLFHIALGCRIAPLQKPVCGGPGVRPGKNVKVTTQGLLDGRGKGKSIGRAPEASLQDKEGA

168 GPCRs [11] = target: T11, 168 GPCRs (Homo sapiens, UniProt P35372); details: OPRM1
T11 construct: host or cells: PathHunter cell lines
T11 sequence (P35372 whole entry): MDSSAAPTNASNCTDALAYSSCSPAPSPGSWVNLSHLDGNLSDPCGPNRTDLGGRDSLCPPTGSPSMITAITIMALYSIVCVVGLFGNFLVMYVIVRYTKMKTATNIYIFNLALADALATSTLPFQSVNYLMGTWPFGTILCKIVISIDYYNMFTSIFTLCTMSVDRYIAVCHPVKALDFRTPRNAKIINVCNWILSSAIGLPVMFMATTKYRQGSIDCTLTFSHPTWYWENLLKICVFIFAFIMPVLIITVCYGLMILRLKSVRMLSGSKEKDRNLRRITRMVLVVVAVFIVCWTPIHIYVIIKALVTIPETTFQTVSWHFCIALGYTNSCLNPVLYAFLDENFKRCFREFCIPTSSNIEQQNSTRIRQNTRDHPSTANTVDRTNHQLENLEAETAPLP

T1 sequence (P21728 whole entry): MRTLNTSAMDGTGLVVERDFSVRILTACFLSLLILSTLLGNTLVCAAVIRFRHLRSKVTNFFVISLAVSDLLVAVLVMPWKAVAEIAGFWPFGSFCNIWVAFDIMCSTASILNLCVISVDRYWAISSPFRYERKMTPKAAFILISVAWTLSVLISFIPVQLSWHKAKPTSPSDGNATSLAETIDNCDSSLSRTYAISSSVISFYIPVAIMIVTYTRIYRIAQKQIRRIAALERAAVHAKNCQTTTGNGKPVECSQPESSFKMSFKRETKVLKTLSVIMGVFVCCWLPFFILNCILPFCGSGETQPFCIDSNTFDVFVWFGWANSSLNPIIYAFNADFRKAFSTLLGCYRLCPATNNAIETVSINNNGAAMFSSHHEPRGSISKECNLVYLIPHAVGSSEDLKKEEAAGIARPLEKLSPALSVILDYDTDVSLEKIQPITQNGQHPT
T2 sequence (Q969F8 whole entry): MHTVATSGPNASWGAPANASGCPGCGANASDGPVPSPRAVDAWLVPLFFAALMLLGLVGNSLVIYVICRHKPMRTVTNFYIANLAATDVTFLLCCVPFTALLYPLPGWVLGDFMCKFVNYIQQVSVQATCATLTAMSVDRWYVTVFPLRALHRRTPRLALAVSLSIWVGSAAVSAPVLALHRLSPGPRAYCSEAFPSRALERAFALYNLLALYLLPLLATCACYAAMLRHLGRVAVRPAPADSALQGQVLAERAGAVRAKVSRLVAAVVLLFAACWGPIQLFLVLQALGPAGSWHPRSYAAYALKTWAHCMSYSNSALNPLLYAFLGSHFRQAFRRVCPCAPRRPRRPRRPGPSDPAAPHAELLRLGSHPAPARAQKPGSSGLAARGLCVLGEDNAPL

SMILES: CNC(C)C(=O)c1ccc2c(c1)OCO2 (stereo not shown) [methylone]
- % Agonist Activity (168 GPCRs [1]; DRD1, 1 uM): -1.6%
- % Antagonist Activity (168 GPCRs [1]; DRD1, 1 uM): 6%
- % Agonist Activity (168 GPCRs [1]; DRD1, 10 uM): -1.6%
- % Antagonist Activity (168 GPCRs [1]; DRD1, 10 uM): 7.8%
- % Agonist Activity (168 GPCRs [2]; 1 uM): -5.5%
- % Antagonist Activity (168 GPCRs [2]; 1 uM): 28.7%
- % Agonist Activity (168 GPCRs [2]; 10 uM): -3.7%
- % Antagonist Activity (168 GPCRs [2]; 10 uM): 14.5%
- % Agonist Activity (168 GPCRs [3]; Conc 1 uM): -7.6%
- % Antagonist Activity (168 GPCRs [3]; Conc 1 uM): 23.1%
- % Agonist Activity (168 GPCRs [3]; Conc 10 uM): -8.7%
- % Antagonist Activity (168 GPCRs [3]; Conc 10 uM): 32.6%
- % Agonist Activity (168 GPCRs [4]; CCR10, 1 uM): -2%
- % Antagonist Activity (168 GPCRs [4]; CCR10, 1 uM): 5.4%
- % Agonist Activity (168 GPCRs [4]; CCR10, 10 uM): -1.8%
- % Antagonist Activity (168 GPCRs [4]; CCR10, 10 uM): 2.6%
- % Agonist Activity (168 GPCRs [5]; Conc 1 uM): -1.6%
- % Antagonist Activity (168 GPCRs [5]; Conc 1 uM): 17.1%
- % Agonist Activity (168 GPCRs [5]; Conc 10 uM): -2.3%
- % Antagonist Activity (168 GPCRs [5]; Conc 10 uM): 13.2%
- % Agonist Activity (168 GPCRs [6]; EDG5, 1 uM): -4.7%
- % Antagonist Activity (168 GPCRs [6]; EDG5, 1 uM): -3.4%
- % Agonist Activity (168 GPCRs [6]; EDG5, 10 uM): -3.7%
- % Antagonist Activity (168 GPCRs [6]; EDG5, 10 uM): -6.3%
- % Agonist Activity (168 GPCRs [7]; Conc 1 uM): -1.1%
- % Antagonist Activity (168 GPCRs [7]; Conc 1 uM): -5.5%
- % Agonist Activity (168 GPCRs [7]; Conc 10 uM): -2.9%
- % Antagonist Activity (168 GPCRs [7]; Conc 10 uM): -19.7%
- % Agonist Activity (168 GPCRs [8]; Conc 1 uM): 4.5%
- % Antagonist Activity (168 GPCRs [8]; Conc 1 uM): 6.5%
- % Agonist Activity (168 GPCRs [8]; Conc 10 uM): 2.4%
- % Antagonist Activity (168 GPCRs [8]; Conc 10 uM): 2.6%
- % Agonist Activity (168 GPCRs [9]; EDG1, 1 uM): 0.1%
- % Antagonist Activity (168 GPCRs [9]; EDG1, 1 uM): 12.4%
- % Agonist Activity (168 GPCRs [9]; EDG1, 10 uM): 0.4%
- % Antagonist Activity (168 GPCRs [9]; EDG1, 10 uM): 10.5%
- % Agonist Activity (168 GPCRs [10]; CCR2, 1 uM): -0.4%
- % Antagonist Activity (168 GPCRs [10]; CCR2, 1 uM): 2%
- % Agonist Activity (168 GPCRs [10]; CCR2, 10 uM): -0.5%
- % Antagonist Activity (168 GPCRs [10]; CCR2, 10 uM): 4.9%
- % Agonist Activity (168 GPCRs [11]; Conc 1 uM): 0.2%
- % Antagonist Activity (168 GPCRs [11]; Conc 1 uM): -8%
- % Agonist Activity (168 GPCRs [11]; Conc 10 uM): 0.5%
- % Antagonist Activity (168 GPCRs [11]; Conc 10 uM): -18%

SMILES: CNC(C)Cc1ccc2c(c1)OCO2 (stereo not shown) [MDMA, 3,4-Methylenedioxy methamphetamine, reference compound]
- % Agonist Activity (168 GPCRs [1]; DRD1, 1 uM): -1%
- % Antagonist Activity (168 GPCRs [1]; DRD1, 1 uM): -0.5%
- % Agonist Activity (168 GPCRs [1]; DRD1, 10 uM): -0.8%
- % Antagonist Activity (168 GPCRs [1]; DRD1, 10 uM): 6%
- % Agonist Activity (168 GPCRs [2]; 1 uM): -4.8%
- % Antagonist Activity (168 GPCRs [2]; 1 uM): -13.9%
- % Agonist Activity (168 GPCRs [2]; 10 uM): -4.3%
- % Antagonist Activity (168 GPCRs [2]; 10 uM): 1.8%
- % Agonist Activity (168 GPCRs [3]; Conc 1 uM): -5.2%
- % Antagonist Activity (168 GPCRs [3]; Conc 1 uM): 15.3%
- % Agonist Activity (168 GPCRs [3]; Conc 10 uM): -0.7%
- % Antagonist Activity (168 GPCRs [3]; Conc 10 uM): 19.1%
- % Agonist Activity (168 GPCRs [4]; CCR10, 1 uM): -1.1%
- % Antagonist Activity (168 GPCRs [4]; CCR10, 1 uM): 8.9%
- % Agonist Activity (168 GPCRs [4]; CCR10, 10 uM): -0.7%
- % Antagonist Activity (168 GPCRs [4]; CCR10, 10 uM): 12.1%
- % Agonist Activity (168 GPCRs [5]; Conc 1 uM): 0.5%
- % Antagonist Activity (168 GPCRs [5]; Conc 1 uM): -6.7%
- % Agonist Activity (168 GPCRs [5]; Conc 10 uM): -0.4%
- % Antagonist Activity (168 GPCRs [5]; Conc 10 uM): -3.2%
- % Agonist Activity (168 GPCRs [6]; EDG5, 1 uM): -1.1%
- % Antagonist Activity (168 GPCRs [6]; EDG5, 1 uM): -0.5%
- % Agonist Activity (168 GPCRs [6]; EDG5, 10 uM): -1.5%
- % Antagonist Activity (168 GPCRs [6]; EDG5, 10 uM): 0.6%
- % Agonist Activity (168 GPCRs [7]; Conc 1 uM): 2.8%
- % Antagonist Activity (168 GPCRs [7]; Conc 1 uM): 9.4%
- % Agonist Activity (168 GPCRs [7]; Conc 10 uM): 1.6%
- % Antagonist Activity (168 GPCRs [7]; Conc 10 uM): 14.2%
- % Agonist Activity (168 GPCRs [8]; Conc 1 uM): 4.9%
- % Antagonist Activity (168 GPCRs [8]; Conc 1 uM): 2.5%
- % Agonist Activity (168 GPCRs [8]; Conc 10 uM): 4.6%
- % Antagonist Activity (168 GPCRs [8]; Conc 10 uM): 1.2%
- % Agonist Activity (168 GPCRs [9]; EDG1, 1 uM): 0%
- % Antagonist Activity (168 GPCRs [9]; EDG1, 1 uM): 3.5%
- % Agonist Activity (168 GPCRs [9]; EDG1, 10 uM): -0.6%
- % Antagonist Activity (168 GPCRs [9]; EDG1, 10 uM): -12.4%
- % Agonist Activity (168 GPCRs [10]; CCR2, 1 uM): 0.5%
- % Antagonist Activity (168 GPCRs [10]; CCR2, 1 uM): 9.2%
- % Agonist Activity (168 GPCRs [10]; CCR2, 10 uM): 0.7%
- % Antagonist Activity (168 GPCRs [10]; CCR2, 10 uM): 11.1%
- % Agonist Activity (168 GPCRs [11]; Conc 1 uM): -0.4%
- % Antagonist Activity (168 GPCRs [11]; Conc 1 uM): -22.1%
- % Agonist Activity (168 GPCRs [11]; Conc 10 uM): -0.2%
- % Antagonist Activity (168 GPCRs [11]; Conc 10 uM): -18.9%
